Assay results reported in patent publication US11576891B2, “Methods of treating or preventing estrogen-related diseases” (ENDORECHERCHE, INC., priority 2010, dated 2023).
Entries after “also recorded” stand apart in the source; their conditions may differ. Marks after values point to notes of the source that are not given here.

Key:
[1] = test system: human endometrial Ishikawa carcinoma cells; conditions: cited from earlier work
solid state stability = assay type: physicochemical
rat = assay: biochemical parameters of bone metabolism in rats treated with DHEA and/or EM-800; assay type: in vivo; conditions: for SERUM TALP (alkaline phosphatase) / URINE CALCIUM / URINE HP/Cr (hydroxyproline/creatinine ratio) / URINE PHOSPHORUS: DHEA 10 mg percutaneously, EM-800 75 μg orally, once daily; for decrease of urinary hydroxyproline/creatinine ratio, marker of bone resorption / increase of serum alkaline phosphatase activity, marker of bone formation: versus control
From the text: Data are expressed as the means±SEM. **: P<0.01 experimental versus respective control.
It is particularly important to indicate that the combination of DHEA and EM-800 exerts unexpected beneficial effects on important biochemical parameters of bone metabolism. […] Moreover, no effect of DHEA alone could be detected on daily urinary calcium or phosphorus excretion (Luo, Sourla et al. 1997). EM-800, on the other hand, decreased the urinary hydroxyproline/creatinine ratio by 48% while, similarly to DHEA, no effect of EM-800 was seen on urinary calcium or phosphorus excretion. EM-800, moreover, had no effect on serum alkaline phosphatase activity, a marker of bone formation while DHEA increased the value of the parameter by about 75% (Luo, Sourla et al. 1997) (Table 2).
Thus, the addition of DHEA to EM-800 increases by 50% of the inhibitory effect of EM-800 on bone reabsorption.

60- to 70-year-old women = conditions: cited from earlier work
ovariectomized rats = assay: bone histomorphometry after 12-month treatment of ovariectomized rats; assay type: in vivo, rat; conditions: 12 months
Procedure: FIG. 6 is a bar graph comparing the effect of 12-month treatment with dehydroepiandrosterone (DHEA) alone or in combination with Flutamide or EM-800 on trabecular bone volume in ovariectomized rats. Intact animals are added as additional controls. Data are presented as mean±SEM **p<0.01 versus OVX Control.
FIG. 7 is a bar graph comparing the effect of 12-month treatment with dehydroepiandrosterone (DHEA) alone or in combination with Flutamide or EM-800 on trabecular number of ovariectomized rats. Intact animals are added as additional controls. Data are presented as mean±SEM **p<0.01 versus OVX Control.
Note the reduced amount of trabecular bone (T) in ovariectomized control animals (B), and the significant increase in trabecular bone volume (T) induced after DHEA administration (C). […] Modified trichrome Masson-Goldner, magn.×80. T: Trabeculae, GP: Growth Plate.
Importantly, the combination of EM-800 and DHEA in ovariectomized rats treated for 12 months had beneficial effects on bone morphometry. Trabecular bone volume is particularly important for bone strength and to prevent bone fractures.

[2] = test system: postmenopausal women suffering from vaginal atrophy; conditions: daily intravaginal, 3 months; cited from earlier work
postmenopausal women = assay: serum lipids in postmenopausal women given oral EM-800; assay type: in vivo, human
ovariectomized rat = conditions: rat after ovariectomy; cited from earlier work

## COc1ccc(-c2sc3cc(O)ccc3c2Oc2ccc(OCCN3CCCCC3)cc2)cc1.Cl [Arzoxifene, 6-hydroxy-3-[4-[2-(1-piperidinyl)ethoxy]phenoxyl]-2-(4-methoxyphenyl)benzo[b]thiophene hydrochloride]
[1]
  effect on estrogen-sensitive parameter alkaline phosphatase: stimulate, to various degrees

## CC1=C(c2ccc(O)cc2)[C@H](c2ccc(OCCN3CCCCC3)cc2)Oc2cc(O)ccc21.Cl [EM-652.HCl, (S)-(+)-7-hydroxy-3-(4′-hydroxyphenyl)-4-methyl-2-(4″-(2′″-piperidinoethoxy)phenyl)-2H-1 benzopyran hydrochloride]
Solid state stability
  solid state stability: good solid state stability

## CC/C(=C(\c1ccc(I)cc1)c1ccc(OCCN2CCCC2)cc1)c1ccccc1 [Idoxifene, (E)-1-[2-[4-[1-(4-Iodophenyl)-2-phenyl-1-butenyl]phenoxy]ethyl]pyrrolidine]
[1]
  effect on estrogen-sensitive parameter alkaline phosphatase: stimulate, to various degrees

## CC/C(=C(/c1ccc(OCCN(C)C)cc1)c1cccc(O)c1)c1ccccc1 [Droloxifene, (E)-3-[1-[4-[2-(Dimethylamino)ethoxy]phenyl]-2-phenyl-1-butenyl]phenol]
[1]
  effect on estrogen-sensitive parameter alkaline phosphatase: stimulate, to various degrees

## CN(C)CCOc1ccc(/C(=C(/CCCl)c2ccccc2)c2ccccc2)cc1 [Toremifene, (Z)-2-[4-(4-Chloro-1,2-diphenyl-1-butenyl)phenoxy]-N,N-dimethylethanamine]
[1]
  effect on estrogen-sensitive parameter alkaline phosphatase: stimulate, to various degrees

## CC/C(=C(\c1ccccc1)c1ccc(OCCN(C)C)cc1)c1ccccc1 [Tamoxifen, (Z)-2-[4-(1,2-diphenyl-1-butenyl)phenoxy]-N,N-dimethylethanamine]
[1]
  effect on estrogen-sensitive parameter alkaline phosphatase: stimulate, to various degrees

## C[C@]12CC[C@H](O)CC1=CC[C@@H]1[C@@H]2CC[C@]2(C)C(=O)CC[C@@H]12 [DHEA, dehydroepiandrosterone]
rat
  effect on daily urinary calcium or phosphorus excretion: no effect
  SERUM TALP (alkaline phosphatase): 198.38 ± 30.76* IU/L
  URINE CALCIUM: 25.87 ± 3.54 μmol/24 h/100 g
  URINE HP/Cr (hydroxyproline/creatinine ratio): 14.02 ± 1.59 μmol/mmol
  URINE PHOSPHORUS: 151.41 ± 14.57 μmol/24 h/100 g
  decrease of urinary hydroxyproline/creatinine ratio, marker of bone resorption: did not affect; also recorded: did not show any effect
  increase of serum alkaline phosphatase activity, marker of bone formation: about 75%
60- to 70-year-old women; 12 months
  abdominal fat measurements: no significant change
  body weight: no change
  decrease in fasting plasma insulin levels: 17%
  decrease in plasma bone alkaline phosphatase: 22%
  decrease in subcutaneous skin fold thickness: 9.8%
  decrease in urinary hydroxyproline: 38%
  decrease of fasting plasma glucose: 12%
  decrease of femoral fat (midthigh, computed tomography): 3.8%
  increase in bone mass density at the hip: 2.3%
  increase in bone mass density at the hip Ward's triangle: 3.75%
  increase in bone mass density at the lumbar spine level: 2.2%
  increase in femoral muscular area (midthigh, computed tomography): 3.5%
  increase over control in plasma osteocalcin: 135%
  plasma triglycerides: not affected
60- to 70-year-old women; after 12 months, all women
  endometrium histology: remained completely atrophic
60- to 70-year-old women; after 12 months
  increase in index of sebum secretion: 79%
60- to 70-year-old women; women with a maturation value of zero at onset of therapy
  women with stimulated vaginal epithelium maturation: 8 out of 10
Ovariectomized rats
  increase in trabecular bone number compared to ovariectomized controls: 137%
  trabecular bone number: 1.27±0.1 per mm
  trabecular bone volume of the tibia: 11.9±0.6%
[2]
  circulating estradiol or testosterone: no change
  domains of sexual dysfunction (desire, arousal, orgasm and pleasure): significant improvement
  symptoms and signs of vaginal atrophy: rapid and very marked improvement

## OCCOc1ccc(/C(=C(/CCCl)c2ccccc2)c2ccccc2)cc1 [Ospemifene, (Z)-2-[4-(4-chloro-1,2-diphenyl-1-butenyl)phenoxyl]ethanol]
[1]
  effect on estrogen-sensitive parameter alkaline phosphatase: stimulate, to various degrees

## CC1=C(c2ccc(OC(=O)C(C)(C)C)cc2)[C@H](c2ccc(OCCN3CCCCC3)cc2)Oc2cc(OC(=O)C(C)(C)C)ccc21 [EM-800, (S)-(+)-4-[7-(2,2-dimethyl-1-oxopropoxy)-4-methyl-2-[4-[2-(1-piperidinyl)-ethoxy]phenyl]-2H-1-benzopyran-3-yl]-phenyl 2,2-dimethylpropanoate]
rat
  effect on daily urinary calcium or phosphorus excretion: no effect
  SERUM TALP (alkaline phosphatase): 114.11 ± 11.26 IU/L
  URINE CALCIUM: 17.44 ± 4.5 μmol/24 h/100 g
  URINE HP/Cr (hydroxyproline/creatinine ratio): 6.81 ± 0.84** μmol/mmol
  URINE PHOSPHORUS: 102.03 ± 25.13 μmol/24 h/100 g
  decrease of urinary hydroxyproline/creatinine ratio, marker of bone resorption: 48%
  increase of serum alkaline phosphatase activity, marker of bone formation: no effect
[1]
  antiestrogenic activity in Ishikawa cells: pure antiestrogenic activity
Postmenopausal women; daily oral dose of 5, 10, 20 and 40 mg for 2 weeks
  decrease in total serum cholesterol: 10%
Postmenopausal women; daily oral dose of 5, 10, 20 and 40 mg, at 1 week
  decrease in serum triglyceride levels: 15%
Ovariectomized rat
  dose at which maximal effect on bone resorption is achieved: 0.01 mg/kg

## Cl.O=C(c1ccc(OCCN2CCCCC2)cc1)c1c(-c2ccc(O)cc2)sc2cc(O)ccc12 [Raloxifene, [2-(4-hydroxyphenyl)-6-hydroxybenzo[b]thien-3-yl][4-[2-(1-piperidinyl)ethoxy]phenyl]-methanone hydrochloride]
[1]
  effect on estrogen-sensitive parameter alkaline phosphatase: stimulate, to various degrees
Ovariectomized rat
  dose at which maximal effect on bone resorption is achieved: 0.1 mg/kg
